Each structure is given as a SMILES string. Active and inactive are the calls of the source.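 Rule for the calls: active = AC50 no more than ten times the top concentration tested, that is within one log above it; inconclusive = flat curve fit with activity between 30% and 70%, or invalid poor fit; inactive = AC50 beyond ten times the top tested dose.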

One may read the AC50 as the concentration giving half of the maximal activity seen.

The test system of this test is S. cerevisiae Mot1-301 ts growth rescue, BacTiter-Glo ATP luminescence. Put plainly: growth rescue of Mot1-301 ts yeast, confirmation, SUMOylation pathway inhibitor project, whole organism, S. cerevisiae, Mot1-301 ts mutant, luminescence, dose retest (AID 463204).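 Note: growth at restrictive 38.5 degrees C of Mot1-301 OY566 strain; actives raise luminescence by restoring growth of the ts mutant at high temperature.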

On to `COCCCNS(=O)(=O)c1ccc(Oc2ncc(C(F)(F)F)cc2Cl)cc1`, for which the AC50 was > 42 µM (inactive).
The value for `CSCCC(NC(=O)c1ccco1)C(=O)N1CCN(Cc2ccccc2)CC1` (stereo not drawn) was > 42 µM (inactive); that for `CC(C)(C)NC(=S)NCc1cccnc1` was > 42 µM (inactive).
The same measure for `COCCN(C(=O)C1CC1)c1nnc(-c2ccc(C)cc2)s1`: > 42 µM (inactive); for `CCOC(=O)C1CCN(Cc2ccc(OCc3ccccc3)cc2)CC1`: > 42 µM (inactive).
With `COc1cccc(OC)c1C(=O)Nc1ccc2c(c1)n(C)c(=O)n2C`, the AC50 was > 42 µM (inactive).
The same measure for `COc1ccc2c(c1)c(CC(=O)OCC(N)=O)c(C)n2C(=O)c1ccc(Cl)cc1`: > 42 µM (inactive); for `COc1cc(C)ccc1OCCCOc1ccccc1Br`: > 42 µM (inactive).
The same measure for `Cn1c(-c2ccc3c(c2)OCO3)cnc1NC(=O)CCC(=O)NCCc1ccccc1`: > 42 µM (inactive).
Regarding `COc1ccc(NC(=O)C2CCN(c3cc(C)nc(-c4ccccc4)n3)CC2)cc1`, the AC50 was > 42 µM (inactive).
Turning to `Cc1nn(C)c(C)c1/C=N/NC(=O)C(C)(C)Oc1ccc(Cl)cc1`, the AC50 was > 42 µM (inactive).
In the case of `CN(C)c1ccc(NC(=O)CSc2nc(N)c(C(=O)Nc3ccc(N(C)C)cc3)s2)cc1`, the AC50 is > 42 µM (inactive).
The same measure for `CCOC(=O)N1CCN(C(=O)c2ccc(CS(=O)(=O)c3c(Cl)cccc3Cl)o2)CC1`: > 42 µM (inactive).
The value for `CCCn1c(=O)c2ccccc2n2c(SCC(=O)N3CCc4ccccc4C3)nnc12` was > 42 µM (inactive); that for `COC(=O)CCC(=O)OC1(C)C(=O)C2=CN(CCc3c[nH]c4ccccc34)C(c3ccc(OC)cc3)=CC2=C(Br)C1=O` (stereo not drawn) was > 42 µM (inactive).
The value for `Cc1ccc(C)c(NC(=S)NC(=O)c2cncc(Br)c2)c1` was > 42 µM (inactive).
As to `CC(NC(=O)OCc1ccccc1)C(=O)N1CC(O)CC1C(=O)O` (stereo not drawn), the AC50 is > 21 µM (inactive).
The same measure for `CCOC(=O)C1CC(c2ccccc2)=NNC1=O` (stereo not drawn): > 42 µM (inactive); for `Nc1cc(-c2ccc(Cl)cc2)nn1S(=O)(=O)c1ccc(Cl)cc1`: > 42 µM (inactive); for `Cc1ccc(Oc2ccc(OCC(=O)Nc3ccncc3)cc2)cc1`: 23.5 µM.
The value for `Cc1ccccc1P(=O)(CO)c1ccccc1C` was > 42 µM (inactive); that for `COc1ccc(OC)c(NC(=O)CN(C)S(=O)(=O)c2ccc(Cl)cc2)c1` was > 42 µM (inactive).
The same measure for `O=C1CCC(/C=C/c2ccccc2)=NN1Cc1ccc(Cl)c(Cl)c1`: > 42 µM (inactive).
As for `CCCCn1c(N)c(N(CCOC)C(=O)c2ccc(Cl)c(S(=O)(=O)N3CCCCC3)c2)c(=O)[nH]c1=O`, the AC50 was > 42 µM (inactive).
The same measure for `CN(C)C(CNC(=O)CNC(=O)c1ccc(Br)cc1)c1ccccc1` (stereo not drawn): > 42 µM (inactive).
The same measure for `COC(=O)CCCC(=O)NCC1(N(C)Cc2ccccc2)Cc2ccccc2C1`: > 42 µM (inactive).
The same measure for `Cn1c(=O)c2c(nc(N/N=C/c3ccc(OC(=O)c4ccco4)cc3)n2Cc2ccccc2Cl)n(C)c1=O`: > 42 µM (inactive).
Turning to `COCCCn1c(=O)c2ccccc2n(Cc2ccccc2C)c1=O`, the AC50 is > 42 µM (inactive).
As to `CCc1cc2c(NCCO)ncnc2s1`, the AC50 was > 42 µM (inactive).
The same measure for `CCC(C)[C@H]1COCCS(=O)(=O)N1Cc1ccc(C)cc1` (stereo partly drawn): > 42 µM (inactive).
Turning to `CS(=O)(=O)C1=NSC2=NC(=O)/C(=C\c3ccc(OS(=O)(=O)c4ccccc4)cc3)C(=N)N21`, the AC50 was > 42 µM (inactive).
The value for `COc1ccc(/C=N/NC(=O)c2nnn(-c3nonc3N)c2-c2cccs2)cc1OC` was > 42 µM (inactive).
The value for `O=C(Oc1ccc2c(c1)OCO2)c1cccs1` was > 42 µM (inactive); that for `CSc1ccc(CCNC(=O)C2CCCN(S(=O)(=O)N3CCOCC3)C2)cc1` (stereo not drawn) was > 42 µM (inactive).
The same measure for `N#C/C(=N\Nc1cccc(F)c1)C(=N)N1CCCCCC1`: > 42 µM (inactive); for `COc1cc(CNCCN2CCOCC2)ccc1OCc1ccccc1Cl`: > 42 µM (inactive); for `CCCNC(=O)Cn1nc(C)n2c(cc3cc(F)ccc32)c1=O`: > 42 µM (inactive).
As to `O=C(c1cn(-c2ccccc2)nc1-c1cccs1)N1CCOCC1`, the AC50 was > 42 µM (inactive).
The value for `C=C(Cl)COC(=O)C1C2C=CC(C2)C1C(=O)O` (stereo not drawn) was > 42 µM (inactive); that for `Cc1ccc(-n2c(C)cc(/C=N/NC(=O)c3ccncc3)c2C)cc1C` was > 42 µM (inactive).
The value for `Cc1ccc(-n2nnnc2SCC#N)cc1` was > 42 µM (inactive).
The value for `COc1ccc(C(=O)O)cc1S(=O)(=O)NCCN(C)C` was > 42 µM (inactive); that for `COC(=O)C1=C(C)NC(C)=C([N+](=O)[O-])C1c1ccccc1C(F)(F)F` (stereo not drawn) was > 42 µM (inactive); that for `Cc1cc(=O)oc2ccc(OC(=O)CC(C)C)cc12` was > 42 µM (inactive).
Consider `Cc1ccc(-n2c(-c3ccco3)nc3c(cnn3-c3ccc(C)cc3)c2=O)cc1`, for which the AC50 is > 42 µM (inactive).
As to `O=C(CSc1nc(-c2ccccc2)nc2ccc(F)cc12)Nc1cccc(C(=O)O)c1`, the AC50 is > 42 µM (inactive).
The same measure for `O=C(CCc1ccccc1)N1CCN(c2ccccc2F)CC1`: > 42 µM (inactive).
In the case of `CN(C/C=C/c1ccccc1[N+](=O)[O-])Cc1ccccc1`, the AC50 was > 42 µM (inactive).
For the compound `COc1ccc(-n2c(C)cc(C(=O)CN3C(=O)NC4(CCCc5sccc54)C3=O)c2C)cc1` (stereo not drawn), the AC50 is > 42 µM (inactive).
As for `CC1(OC(=O)C2CCCC2)C(=O)C=C2C=C(c3ccsc3)OC=C2C1=O` (stereo not drawn), the AC50 is > 42 µM (inactive).
The same measure for `COc1ccc(C2=Nn3c(nnc3-c3ccco3)SC2)cc1`: > 42 µM (inactive).
The value for `CCN(C(=O)COC(=O)c1c(-c2ccccc2)noc1C)c1c(N)n(Cc2ccccc2)c(=O)[nH]c1=O` was > 42 µM (inactive); that for `CC[C@H]1CCCCc2ccccc2[C@@H](C(=O)C[C@@H](O)CC(C)=O)OC1=O` was 14.2 µM.
The value for `CCOC(=O)c1cccc(NC(=O)C2CCCN(S(=O)(=O)c3c(C)n[nH]c3C)C2)c1` (stereo not drawn) was > 42 µM (inactive).
Turning to `CC(=O)Nc1cccc(OCC(O)Cn2c(C)nc3ccccc32)c1` (stereo not drawn), the AC50 was > 42 µM (inactive).
In the case of `CC(=O)c1ccccc1C(=O)N1CCCC(N2CCN(Cc3ccc4c(c3)OCO4)CC2)C1` (stereo not drawn), the AC50 is > 42 µM (inactive).
The value for `Nc1cc(Cl)ccc1N1CCOCC1` was > 42 µM (inactive).
The value for `O=C(N/N=C/c1ccccc1)c1[nH]c2ccc(Br)cc2c1-c1ccccc1` was > 42 µM (inactive).
The same measure for `O=C(OCCCN=C1NS(=O)(=O)c2ccccc21)c1cccs1`: > 42 µM (inactive); for `COc1ccc(OCCC(=O)c2ccc(OC)cc2)cc1`: > 42 µM (inactive); for `COCCn1c(SCC(=O)Nc2nc3ccccc3s2)nnc1-c1ccoc1C`: > 42 µM (inactive).
Take `CC1=CS(=O)(=O)CC1Sc1ncn[nH]1` (stereo not drawn): the AC50 is > 42 µM (inactive).
The same measure for `COc1ccc(NC(=O)CN2C(=O)c3ccccc3S2(=O)=O)cc1OC`: > 42 µM (inactive).
The value for `COc1ccccc1CNC(=O)C1CCC(CNS(=O)(=O)c2ccc(C)cc2)CC1` (stereo not drawn) was > 42 µM (inactive).
The same measure for `CCn1c(SCC(N)=O)nnc1-c1cc2c(C)nn(-c3ccccc3)c2s1`: > 42 µM (inactive).
Consider `Cc1nnc(NC(=O)c2ccc(-c3cccc(C(F)(F)F)c3)o2)s1`, for which the AC50 is > 42 µM (inactive).
For `Nc1ccc(NC(=O)c2ccco2)c(Cl)c1`, the AC50 was > 42 µM (inactive).
The same measure for `Cc1cccc(N2C(=O)/C(=C/c3cccnc3)SC2=S)c1`: > 42 µM (inactive).
The same measure for `CCCCOC(=O)/C(=C/C=C/c1ccccc1)NC(=O)c1ccccc1`: > 42 µM (inactive); for `CN(c1ccccc1)S(=O)(=O)c1ccc(C(=O)NCC2CCCO2)cc1` (stereo not drawn): > 21 µM (inactive); for `CN1CCCCC1=NCCCn1cnc2c1c(=O)n(C)c(=O)n2C`: > 42 µM (inactive).
As for `COC(=O)Oc1ccc(/C=N/NS(=O)(=O)c2ccccc2)cc1OC`, the AC50 is > 42 µM (inactive).
The same measure for `COc1cccc(Cn2cnc3c(NS(=O)(=O)c4cccc(Cl)c4Cl)c(C)c(C)cc32)c1`: > 110 µM (inactive); for `CCN(C(=O)Cn1nc(C)c([N+](=O)[O-])c1C)c1c(N)n(Cc2ccccc2)c(=O)[nH]c1=O`: > 42 µM (inactive).
For the compound `OC[C@@H](O)CCl`, the AC50 was > 42 µM (inactive).
Turning to `CCc1ccccc1NC(=O)N[C@@H](C)C(=O)OC`, the AC50 was > 42 µM (inactive).
Regarding `COCC(=O)n1nc(NCc2ccc(OC)cc2)nc1NCc1ccc(OC)cc1`, the AC50 was > 42 µM (inactive).
Take `COc1ccccc1C(=O)N(NC(=O)Oc1ccccc1)C(C)(C)C`: the AC50 is > 42 µM (inactive).
As for `CCNC(=O)COc1ccc(S(=O)(=O)Nc2ccccc2)cc1`, the AC50 was > 21 µM (inactive).
Regarding `CC(C)=CC(=O)N1CCCC(N2CCN(c3ccc(F)cc3)CC2)C1` (stereo not drawn), the AC50 is > 42 µM (inactive).
The value for `CCOC(=O)C1CCN(C(=O)COc2ccc(S(=O)(=O)N3CCOCC3)cc2C)CC1` was > 42 µM (inactive); that for `CC(C)(C)NC(=O)C(c1cccs1)N(Cc1cccs1)C(=O)c1ccc(CN2CCOCC2)o1` (stereo not drawn) was > 42 µM (inactive).
Regarding `CCOCCn1c(-c2ccc(OC)cc2)nc2ccccc21`, the AC50 was > 42 µM (inactive).
The value for `Cc1ccccc1C(=O)/C=C1\NC(=O)CS1` was > 21 µM (inactive); that for `c1ccc2cc(C3CCCCC3)ncc2c1` was 14 µM; that for `COc1cccc(OC)c1C(=O)N1CCN(Cc2ccccc2C)CC1` was > 42 µM (inactive).
The value for `O=C(Nc1ccccc1F)C1CCN(C(=O)Cc2ccccc2)CC1` was > 42 µM (inactive).
Consider `CC1CCN(S(=O)(=O)c2ccc(NC(=O)c3cccs3)cc2)CC1`, for which the AC50 was > 42 µM (inactive).

For the origin of these results see PubChem BioAssay AID463204 (Broad Institute, 2010).
